This experiment deals with spontaneously hypertensive rats (SHR). As to the kind of experiment: Hypotensive effect after oral administration, tail-cuff method. The class given is in vivo, rat. The following applies: SHR (male), 32 mg/kg body weight, 5 hours after administration vs before. The method, then:
Each of the casein hydrolysate powders prepared in Example and Comparative Examples shown in Table 1 were administered orally to five 27-week-old spontaneously hypertensive rats (SHR) (male) at a dose of 32 mg/kg body weight. Blood pressure was measured before the administration and 5 hours after the administration by tail-cuff method with Tail-cuff PB-98 (manufacture by SOFTRON) to evaluate the change in blood pressure. As a control, casein was administered instead of the powders, and the same evaluation was made. Before the measurement of blood pressure, rats were warmed in a preheat box (manufactured by CSI JAPAN) at 45° C. for 8 minutes.
Further, in accordance with the above method, a dose-dependent hypotensive effect was tested using the casein hydrolysate powders prepared in Example 1.

In the case of casein [Control], the “Blood pressure drop (average ± SD)” value is −2.5 ± 7.5. Besides, for the setting “listed as casein”, the “Blood pressure drop (average ± SD)” value is given as “no change in blood pressure was observed”.

The values above are taken from patent US8580557B2, “Casein hydrolyzate, process for producing the same and use thereof” (Calpis Co., Ltd., priority 2003, dated 2013).
